The source of these data is PubChem BioAssay AID977621 (Broad Institute, 2014).

The subject of this test is E. coli H69 humanized mutant ribosome RFP strain growth, fluorescence, 24 h. Nature of the test: growth inhibition of wild-type GFP E. coli, dose response, H69 mutant RFP, cherry-pick (AID 977621).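 Note: wild-type GFP and H69 mutant RFP strains grown together 50/50 in each well.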 The following applies: test 2.

SMILES strings stand for the structures. Records with an inconclusive call do not appear.

A word on the AC50: it is the concentration at which the activity in the assay is half-maximal. Low values mean activity at low concentration, high ones activity only at high concentration.

Turning to `COC(=O)c1ccc(CSc2nc3ccccc3s2)o1`, the AC50 is 39 µM.
`Cc1ccccc1Nc1c(-c2cccnc2)nc2ccc(Br)cn12` displayed a concentration at half-maximal activity (AC50) of over 100 µM.
The compound `Cc1ccccc1CSc1nnc(-c2ccccn2)n1C` had an AC50 of 28.3 µM.
`O=C(O)c1cc(-c2ccc(-c3ccc(F)cc3)o2)nc2ccccc12` returned an AC50 of 39.6 µM.
To `[O-][n+]1ccccc1/C=C/c1ccccc1` belongs over 100 µM.
The value for `CSc1ccc(CN(C)C(=O)C(c2ccccc2)c2ccccc2)cc1` was 50.1 µM.
As for `Cc1onc(-c2ccccc2Cl)c1C(=O)OCC(=O)c1ccccc1`, the AC50 stood at 45.6 µM.
For `CN1CCSc2ccc(C(=O)Nc3cccc(F)c3)cc21`, the AC50 was determined as 0.837 µM.
With `Cc1cc(-c2ccc(C)c(S(=O)(=O)NCC3CCN(Cc4ccccc4F)CC3)c2)on1`, the AC50 was over 100 µM.
In the case of `CCc1cccc(NC(=O)c2ccc3c(=O)n4c(nc3c2)CCCCC4)c1`, the AC50 was over 100 µM.
The value for `Cc1ccc(S(=O)(=O)N(C(=O)c2ccncc2)c2ccc(OC(=O)c3ccncc3)cc2)c(C)c1` was over 100 µM; that for `CC1Sc2ccc(S(=O)(=O)NCc3ccccc3)cc2NC1=O` (stereo not drawn) was over 100 µM; that for `O=C1N2c3ccccc3CCc3cccc(c32)C1(O)C(F)(F)F` (stereo not drawn) was 43.6 µM.
The value for `CCOC(=O)C1CCCN(Cc2c(Cl)cccc2Cl)C1` (stereo not drawn) was 6.66 µM; that for `Cc1noc(C)c1NC(=O)Nc1ccc2c(c1)C(=O)N([C@@H](C)CO)C[C@@H](C)[C@H](CN(C)C(=O)Nc1ccc3c(c1)OCO3)OCCCC[C@H](C)O2` was over 100 µM; that for `O=S(=O)(c1cccc(-c2nc3ccccc3s2)c1)N1CCCC1` was over 100 µM.
The value for `CCc1c(N=O)c(-c2ccccc2)n(O)[n+]1[O-]` was 6.29 µM; that for `O=C(Nc1cccc(Oc2ccc3c(c2)C(=O)NC3=O)c1)c1cccs1` was 13 µM; that for `CCOc1cc(/C=C(\CC(=O)O)c2nc3ccccc3s2)ccc1OC` was over 100 µM.
Compound `Cc1ccc(Cl)cc1N1CCN(C(=O)c2ccc3nc[nH]c3c2)CC1` had an AC50 of 51.4 µM.
Regarding `Fc1ccc(-c2nc3ccc(Cl)cn3c2Cc2cccc(Cl)c2)cc1`, the AC50 was over 100 µM.
To `CCOc1ccc(S(=O)(=O)N(C)c2ccc(OCC(=O)NCc3cccnc3)cc2)cc1` belongs over 100 µM; to `O=C1c2ccccc2CSc2c(O)cccc21`, 45.9 µM.
Compound `COc1ccc2c(c1)c(C(C)=O)c(C)n2CCc1ccc(OC)c(OC)c1` registered an AC50 of 51 µM.
Compound `O=C(O)c1cccnc1SCc1ccccc1Cl` registered a half-maximal activity concentration (AC50) of 35.9 µM.
Compound `CCCCn1c(=O)[nH]c(=O)c2c1nc(-c1ccccc1F)n2Cc1ccccc1` showed an AC50 of over 100 µM.
With `COc1ccc(C2CC(=O)CCN2S(=O)(=O)c2ccc(C)cc2)cc1` (stereo not drawn), the AC50 was 3.86 µM.
With `O=C(CCNC(=O)c1ccccc1)Nc1ccc(Cl)c(S(=O)(=O)N2CCCCC2)c1`, the AC50 stood at 42.6 µM.
The compound `CSc1nnnn1-c1ccc(Cl)cc1` yielded an AC50 of over 100 µM.
`Cc1ccccc1-c1nc(CS(=O)(=O)CC(=O)N2CCCCC2)c(C)o1` returned an AC50 of over 100 µM.
Regarding `Cc1nn(C(C)(C)C)c(OC(=O)CC(C)C)c1S(=O)(=O)c1ccccc1`, the AC50 worked out at 30.7 µM.
For the compound `NC(=O)c1ccccc1OCCOc1ccc(Br)cc1`, the AC50 is over 100 µM.
To `O=C(O)c1cc(-c2cccs2)nn1-c1cccc(Cl)c1` belongs 46.1 µM.
`O=C(NCCc1csc(-c2ccccc2)n1)c1ccccc1F` registered an AC50 of 49 µM.
`Oc1ccc(-c2csc(Nc3ncccn3)n2)cc1` came in with an AC50 of over 100 µM.
To `Cc1ccccc1-n1nnnc1SCCCC(=O)c1ccc(F)cc1` belongs 6.72 µM; to `O=C(OCC1COc2ccccc2O1)c1ccccc1F` (stereo not drawn), over 100 µM; to `Cc1noc(NS(=O)(=O)c2ccc(NC(=O)c3cc(-c4ccccc4Cl)nc4ccccc34)cc2)c1C`, 45.6 µM.
In turn, `CNC(=O)c1ccsc1NC(=O)c1ccc(S(=O)(=O)N2CCc3ccccc32)cc1` returned an AC50 of 2.19 µM.
The value for `COC(=O)c1cc(C(=O)Cc2ccccc2)c[nH]1` was over 100 µM.
The value for `Cc1noc2ncnc(SCc3ccc(C(F)(F)F)cc3)c12` was over 100 µM; that for `COc1ccccc1NC(=O)CSc1ncc(CO)n1Cc1ccc(F)cc1` was over 100 µM.
`CCCc1nc2oc3c(NCCCN(C)C)ncnc3c2c2c1CCCC2` returned an AC50 of 6.74 µM.
Regarding `COc1ccc(CNC(=O)c2sc3nc4c(c(C(F)(F)F)c3c2N)CCC4)cc1OC`, the AC50 was 13.9 µM.
Take `CN1CCN(CC(=O)c2cc(C(C)(C)C)c(O)c(C(C)(C)C)c2)CC1`: the AC50 was over 100 µM.
Compound `Cc1ccc(NC(=O)CN(C)S(=O)(=O)c2cccc3cccnc23)cc1F` gave an AC50 of over 100 µM.
In turn, `O=C(COC(=O)CCC(=O)c1ccc(F)cc1)NCCc1ccccc1` came in with an AC50 of over 100 µM.
Regarding `C[C@H]1CN([C@@H](C)CO)C(=O)CCCn2nncc2CO[C@@H]1CN(C)Cc1ccccc1C(F)(F)F`, the half-maximal activity concentration (AC50) is over 100 µM.
`COc1cccc(CNC(=O)CCSCc2ccccc2F)c1` gave an AC50 of over 100 µM.
`O=S(=O)(NCc1ccc2c(c1)OCO2)c1ccc2c(c1)oc1ccccc12` had an AC50 of 52.3 µM.
On to `CSc1cccc(NC(=O)CCc2ccccc2)c1`, for which the AC50 is 20 µM.
As to `FC(F)(F)c1ccc(Cl)c(-n2c(Cc3cccs3)n[nH]c2=S)c1`, the AC50 is over 100 µM.
Consider `O=C(COC(=O)C1CC2C=CC1C2)Nc1ccc([N+](=O)[O-])cc1` (stereo not drawn), for which the AC50 is over 100 µM.
The value for `O=C(CSc1nc2ccccc2n1S(=O)(=O)c1cccc([N+](=O)[O-])c1)NCCc1ccccc1` was over 100 µM.
In the case of `O=C(CSCc1cnn(-c2ccccc2)c1-n1cccc1)NCc1cccnc1`, the AC50 was determined as 2.13 µM.
Regarding `O=C(O)c1cc2ccc3ccccc3c2[nH]1`, the AC50 was 7.13 µM.
In turn, `CCN(CC)CC(=O)Nc1sc2c(c1C(=O)c1ccccc1OC)CCC2` gave an AC50 of 48.3 µM.
On to `COc1ccc(-c2csc(NC(=O)c3ccccc3S(C)(=O)=O)n2)cc1`, for which the AC50 is over 100 µM.
